Here are results for 1 compound from patent US20130059783A1, “COMPOSITIONS AND METHODS FOR EXPANDING BFU-E CELLS” (priority 2010, published 2013).

One assay relates to BFU-E cells. Kind of assay: FACS analysis of c-kit expression of BFU-E cells in SFELE culture. Format: cell-based, mouse. As to conditions: day 3 of culture, 100 nM Dex. Here is the method: FIGS. 1A-1F. Glucocorticoids stimulate stress erythropoiesis by enhancing erythroblast output predominantly from BFU-E progenitors. […] Error bars show one standard deviation. […] Error bars show one standard deviation. […] Shown is the fraction of c-kit+ cells after 72 hours. […] Cell numbers in each clone were estimated under the microscope on Day 8. 80% of sorted BFU-E cells form more than 100 daughter cells in erythroid expansion culture.

The subject of assay [1] is miRNA expression in BFU-E cells. Kind of assay: Small RNA (miRNA) sequencing of BFU-E cells cultured 4 hours with or without Dex. Type of assay: cell-based, mouse. As to conditions: 100 nM Dex. An excerpt: FIGS. 2A-2B. The effect of glucocorticoids on miRNA and mRNA expression in BFU-E cells determined by next generation sequencing. […] Both mRNAs and miRNAs were subjected to Illumina deep sequencing. […] (B) A plot similar to that in A for expression of individual mRNAs. mRNA expression was normalized using the RPKM method, which determines the relative expression of each gene to all expressed genes by giving each gene an RPKM count (number of uniquely aligning reads per kb exon per million total reads).
B) Percent of total miRNA expression of the 20 highest expressed miRNAs. C) Percent of total miRNA expression of the 20 highest expressed miRNA-families.
Differences in miRNA expression were determined as described previously (Baek et al., 2008). […] Since several miRNAs contain the same seed sequence and therefore target the same group of mRNAs we also compared changes in expression of miRNA families.
Small RNA sequencing was performed essentially as described (Grimson et al., 2008). […] The adaptor sequence was stripped and aligned to mouse NCBI build 37 (mm9) using ELAND. Reads mapping to the known microRNA hairpins were used for downstream analysis. Reads mapping to miRNA with more than one known copy in the genome were divided equally between the different loci. miRNA analysis methods to compute miRNA expression counts were derived from previously published methods (Baek et al., 2008).

Molecules are shown by their SMILES.

For the compound `C[C@@H]1C[C@H]2[C@@H]3CCC4=CC(=O)C=C[C@]4(C)[C@@]3(F)[C@@H](O)C[C@]2(C)[C@@]1(O)C(=O)CO` [Dex, dexamethasone], the “Cells still expressing c-kit” value in the assay on BFU-E cells came out at 55%. Also, in assay [1], the “Increase in expression of the 100 highest expressed miRNAs” value was at most 50% and the “Increase in miR-451 expression” value is on record as 49%.
